Reference: patent US20260137706A1, “METHODS OF TREATING INFLAMMATORY DISEASES” (INTERLINE THERAPEUTICS, INC., priority 2023, published 2026)
Like-named read-outs stand apart in the source and are kept apart here.

Legend:
[1] = target: T1, GST-RIPK2 fusion protein (human RIPK2, amino acids 1-310) (Homo sapiens, UniProt O43353); experiment: RIPK2 binding competition assay (TR-FRET, Tracer 199 displacement)
T1 construct: made in house; host or cells: baculovirus infected Sf9 cells
Summary of the method: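 GST-RIPK2 (human aa 1-310, Sf9-expressed; final 1 nM) with Tracer 199 (final 10 nM) and Tb-anti-GST (final 0.5 nM) in Tris pH 7.5 buffer, 45 min at 22 °C. TR-FRET 665/620 nm ratio after 337 nm excitation; normalized to no-inhibitor (0%) and no-protein (−100%), giving IC50.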

[2] = target: T2, binding of His-XIAP(BIR2)-avi fusion protein to GST-RIPK2 fusion protein (RIPK2/XIAP) (Homo sapiens, UniProt O43353); experiment: RIPK2-XIAP binding competition PPI assay (TR-FRET); conditions: RIPK2/XIAP binding competition PPI assay; for Emax: Amax, read-out: PPI Amax bin
T2 construct: made in house; host or cells: baculovirus infected Sf9 cells
T2 sequence (O43353 1-310 limits assumed): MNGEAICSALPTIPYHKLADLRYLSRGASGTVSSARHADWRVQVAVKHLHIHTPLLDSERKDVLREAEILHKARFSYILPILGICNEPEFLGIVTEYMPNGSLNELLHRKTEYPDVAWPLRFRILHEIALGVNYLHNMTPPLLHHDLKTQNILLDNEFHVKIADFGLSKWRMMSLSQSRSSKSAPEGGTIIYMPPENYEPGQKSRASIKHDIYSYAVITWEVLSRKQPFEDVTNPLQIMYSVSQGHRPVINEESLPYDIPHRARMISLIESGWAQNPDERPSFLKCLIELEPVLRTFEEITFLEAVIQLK
Summary of the method: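 Compounds (in DMSO, 100-fold stock) incubated 120 min at 23 °C with 1 nM GST-RIPK2 (aa 1-310) and 25 nM His-XIAP(BIR2 aa 152-231)-avi, plus anti-His-XL665 and anti-GST-Tb, in pH 7.5 Tris buffer. Read-out: 665/520 nm emission ratio. Normalized to no-inhibitor (0%) and 50 nM GSK583 (−100%); Amax binned A–D.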

[3] = system: NF-κB pathway (SEAP) in THP1-Dual cells; experiment: THP-1 Dual cell SEAP assay (L18-MDP stimulated); assay type: cell-based; conditions: Homo sapiens, THP1-Dual, read-out: NF-κB THP1 IC50 bin
Summary of the method: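 THP1-Dual cells (~25,000/well) were preincubated 30 min with serially diluted compounds, then stimulated with 10 ng/mL L18-MDP (final) for 20-24 h at 37 °C. Supernatant SEAP was read with QUANTI-Blue at OD 620-655 nm after 2 h. IC50 came from non-linear fits of % inhibition versus DMSO/L18-MDP controls after media-blank subtraction.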

[4] = 10 nM Tracer 199, 1 nM GST-RIPK2, read-out: RIPK2 IC50

T1 sequence (O43353 1-310): as the sequence (O43353 1-310 limits assumed) above

Compound: COc1cn2ncc(-c3cc(F)c(OC)c(NS(=O)(=O)c4cnn(C)c4)c3)c2nc1OC [Example 211, N-(5-(5,6-dimethoxypyrazolo[1,5-a]pyrimidin-3-yl)-3-fluoro-2-methoxyphenyl)-1-methyl-1H-pyrazole-4-sulfonamide]
- IC50 [1, 4]: 2.5 to 20 nM
- Emax [2]: > 80%
- IC50 ([2]; read-out: PPI IC50 bin): 2.5 to 20 nM
- IC50 [3]: > 1000 nM

Compound: COc1cc2ncc(-c3cc(F)c4nc(C)cn4c3)n2cc1S(=O)(=O)C(C)(C)C [Example 109, 6-(tert-butylsulfonyl)-8′-fluoro-7-methoxy-2′-methyl-3,6′-biimidazo[1,2-a]pyridine]
- IC50 [1, 4]: > 20 nM
- Emax [2]: < 30%
- IC50 ([2]; read-out: PPI IC50 bin): > 20 nM
- IC50 [3]: > 1000 nM

Compound: [2H]C([2H])([2H])Oc1c(F)cc(-c2cnc3cc(OC)c(S(=O)(=O)C(C)(C)C)cn23)cc1NS(=O)(=O)CC1COC1 [Example 133, N-(5-(6-(tert-butylsulfonyl)-7-methoxyimidazo[1,2-a]pyridin-3-yl)-3-fluoro-2-(methoxy-d3)phenyl)-1-(oxetan-3-yl)methanesulfonamide]
- IC50 [1, 4]: < 1 nM
- Emax [2]: 55 to 80%
- IC50 ([2]; read-out: PPI IC50 bin): < 1 nM
- IC50 [3]: < 50 nM

Compound: COc1cc2ncc(-c3cc(F)c(OC)c(NS(=O)(=O)c4cnn(C)c4)c3)n2cc1C1(F)CCN(C)CC1 [Example 234, N-(3-fluoro-5-(6-(4-fluoro-1-methylpiperidin-4-yl)-7-methoxyimidazo[1,2-a]pyridin-3-yl)-2-methoxyphenyl)-1-methyl-1H-pyrazole-4-sulfonamide]
- IC50 [1, 4]: < 1 nM
- Emax [2]: > 80%
- IC50 ([2]; read-out: PPI IC50 bin): < 1 nM
- IC50 [3]: < 50 nM

Compound: COc1cc2nc(N)c(-c3cc(F)c(N)nc3F)n2cc1S(=O)(=O)C(C)(C)C [Example 40, 3-(6-amino-2,5-difluoropyridin-3-yl)-6-(tert-butylsulfonyl)-7-methoxyimidazo[1,2-a]pyridin-2-amine]
- IC50 [1, 4]: > 20 nM
- Emax [2]: 55 to 80%
- IC50 ([2]; read-out: PPI IC50 bin): > 20 nM
- IC50 [3]: > 1000 nM

Compound: CC(F)(CO)COc1cc2ncc(-c3cc(F)c(N)nc3F)n2cc1S(=O)(=O)C(C)(C)C (stereo not shown) [Example 204, 3-((3-(6-amino-2,5-difluoropyridin-3-yl)-6-(tert-butylsulfonyl)imidazo [1,2-a]pyridin-7-yl)oxy)-2-fluoro-2-methylpropan-1-ol]
- IC50 [1, 4]: 1 to 2.5 nM
- Emax [2]: > 80%
- IC50 ([2]; read-out: PPI IC50 bin): 1 to 2.5 nM
- IC50 [3]: 50 to 250 nM

Compound: COc1cc2ncc(-c3cc(F)c(N)nc3F)n2cc1C1(O)CCOCC1 [Example 75, 4-(3-(6-amino-2,5-difluoropyridin-3-yl)-7-methoxyimidazo[1,2-a]pyridin-6-yl)tetrahydro-2H-pyran-4-ol]
- IC50 [1, 4]: > 20 nM
- Emax [2]: > 80%
- IC50 ([2]; read-out: PPI IC50 bin): > 20 nM
- IC50 [3]: > 1000 nM

Compound: COC1(COc2cc3ncc(-c4cc(F)c(N)nc4F)n3cc2S(=O)(=O)C(C)(C)C)COC1 [Example 35, 5-(6-(tert-butylsulfonyl)-7-((3-methoxyoxetan-3-yl)methoxy)imidazo[1,2-a]pyridin-3-yl)-3,6-difluoropyridin-2-amine]
- IC50 [1, 4]: 2.5 to 20 nM
- Emax [2]: > 80%
- IC50 ([2]; read-out: PPI IC50 bin): 2.5 to 20 nM
- IC50 [3]: 250 to 1000 nM

Compound: CC(C)(C)S(=O)(=O)c1cn2c(-c3cc(F)c(N)nc3F)cnc2cc1OCCN1CCOCC1 [Example 18, 5-(6-(tert-butylsulfonyl)-7-(2-morpholinoethoxy)imidazo[1,2-a]pyridin-3-yl)-3,6-difluoropyridin-2-amine]
- IC50 [1, 4]: 2.5 to 20 nM
- Emax [2]: > 80%
- IC50 ([2]; read-out: PPI IC50 bin): 2.5 to 20 nM
- IC50 [3]: 250 to 1000 nM

Compound: C[C@H](CO)Oc1cc2ncc(-c3cc(F)c(N)nc3F)n2cc1S(=O)(=O)C(C)(C)C [Example 172, (R)-2-((3-(6-amino-2,5-difluoropyridin-3-yl)-6-(tert-butylsulfonyl)imidazo[1,2-a]pyridin-7-yl)oxy)propan-1-ol]
- IC50 ([1]; RIPK2 IC50 (nM), 10 nM Tracer 199, 1 nM GST-RIPK2): 2.5 to 20 nM
- IC50 ([2]; PPI IC50 bin): 2.5 to 20 nM
- Emax [2]: > 80%
- IC50 [3]: 250 to 1000 nM

Compound: COc1cc2ncc(-c3cc(F)c(N)nc3F)n2cc1S(=O)(=O)C(C)(C)CO [Example 60, 2-((3-(6-amino-2,5-difluoropyridin-3-yl)-7-methoxyimidazo[1,2-a]pyridin-6-yl)sulfonyl)-2-methylpropan-1-ol]
- IC50 [1, 4]: 2.5 to 20 nM
- Emax [2]: > 80%
- IC50 ([2]; read-out: PPI IC50 bin): 2.5 to 20 nM
- IC50 [3]: 250 to 1000 nM

Compound: COc1cc2ncc(-c3cc(F)c(OC)c(NS(=O)(=O)c4cnn(C)c4)c3)n2cc1S(C)(=O)=O [Example 214, N-(3-fluoro-2-methoxy-5-(7-methoxy-6-(methylsulfonyl)imidazo[1,2-a]pyridin-3-yl)phenyl)-1-methyl-1H-pyrazole-4-sulfonamide]
- IC50 [1, 4]: < 1 nM
- Emax [2]: > 80%
- IC50 ([2]; read-out: PPI IC50 bin): < 1 nM
- IC50 [3]: 50 to 250 nM

Compound: CC(C)(O)COc1cc2ncc(-c3cc(F)c(N)nc3F)n2cc1S(=O)(=O)C(C)(C)C [Example 28, 1-((3-(6-amino-2,5-difluoropyridin-3-yl)-6-(tert-butylsulfonyl)imidazo[1,2-a]pyridin-7-yl)oxy)-2-methylpropan-2-ol]
- IC50 [1, 4]: 1 to 2.5 nM
- Emax [2]: > 80%
- IC50 ([2]; read-out: PPI IC50 bin): 2.5 to 20 nM
- IC50 [3]: 50 to 250 nM

Compound: CC1(COc2cc3ncc(-c4cc(F)c(N)nc4F)n3cc2S(=O)(=O)C(C)(C)C)COC1 [Example 26, 5-(6-(tert-butylsulfonyl)-7-((3-methyloxetan-3-yl)methoxy)imidazo[1,2-a]pyridin-3-yl)-3,6-difluoropyridin-2-amine]
- IC50 [1, 4]: 1 to 2.5 nM
- Emax [2]: > 80%
- IC50 ([2]; read-out: PPI IC50 bin): 2.5 to 20 nM
- IC50 [3]: 50 to 250 nM

Compound: CC(C)(C)S(=O)(=O)c1cn2c(-c3cnc4cn[nH]c4c3)cnc2cc1OCCO [Example 210, 2-((6-(tert-butylsulfonyl)-3-(1H-pyrazolo[4,3-b]pyridin-6-yl)imidazo[1,2-a]pyridin-7-yl)oxy)ethan-1-ol]
- IC50 [1, 4]: > 20 nM
- Emax [2]: < 30%
- IC50 ([2]; read-out: PPI IC50 bin): > 20 nM
- IC50 [3]: > 1000 nM

Compound: COc1cc2ncc(-c3cccc(NS(=O)(=O)C4CNC4)c3)n2cc1S(=O)(=O)C(C)(C)C [Example 156, N-(3-(6-(tert-butylsulfonyl)-7-methoxyimidazo[1,2-a]pyridin-3-yl)phenyl)azetidine-3-sulfonamide]
- IC50 [1, 4]: > 20 nM
- Emax [2]: > 80%
- IC50 ([2]; read-out: PPI IC50 bin): > 20 nM
- IC50 [3]: > 1000 nM

Compound: COc1cc2ncc(-c3cnn4ncccc34)n2cc1S(=O)(=O)C(C)(C)C [Example 114, 3-(6-(tert-butylsulfonyl)-7-methoxyimidazo[1,2-a]pyridin-3-yl)pyrazolo[1,5-b]pyridazine]
- IC50 [1, 4]: > 20 nM
- Emax [2]: < 30%
- IC50 ([2]; read-out: PPI IC50 bin): > 20 nM
- IC50 [3]: > 1000 nM

Compound: COc1cc2ncc(-c3cc(F)c(OC)c(NS(=O)(=O)c4cnn(C)c4)c3)n2cc1S(=O)(=O)C(C)(C)C [Example 135, N-(5-(6-(tert-butylsulfonyl)-7-methoxyimidazo[1,2-a]pyridin-3-yl)-3-fluoro-2-methoxyphenyl)-1-methyl-1H-pyrazole-4-sulfonamide]
- IC50 [1, 4]: < 1 nM
- Emax [2]: > 80%
- IC50 ([2]; read-out: PPI IC50 bin): < 1 nM
- IC50 [3]: < 50 nM

Compound: CC(C)(C)S(=O)(=O)c1cn2c(-c3cc(F)c(N)nc3F)cnc2cc1OCCn1cccn1 [Example 24, 5-(7-(2-(1H-pyrazol-1-yl)ethoxy)-6-(tert-butylsulfonyl)imidazo[1,2-a]pyridin-3-yl)-3,6-difluoropyridin-2-amine]
- IC50 [1, 4]: 2.5 to 20 nM
- Emax [2]: > 80%
- IC50 ([2]; read-out: PPI IC50 bin): 2.5 to 20 nM
- IC50 [3]: 50 to 250 nM
